In patent US11324725B2, “Compositions and methods for the inhibition of pruritus” (The United States of America, as represented by the …, priority 2017, dated 2022):
“Also recorded” adds a separate entry of the source.

Columns and labels:
[1] = Kinetic solubility assay (μSOL); format: physicochemical; details: pH 7.4
Method: The μSOL assay was used for kinetic solubility determination, as described in Avdeef, et al., “Drug absorption in vitro model: filter-immobilized artificial membranes. 2. Studies of the permeability properties of lactones in Piper methysticum Forst,” Eur J Pharm Sci 14, 271-280 (2001), which is incorporated by reference herein. In this assay, the classical saturation shake-flask solubility method was adapted as described. Test compounds were prepared as 10 mM DMSO stock solutions and diluted to a final compound concentration of 150 μM in aqueous solution (pH 7.4, 100 mM phosphate buffer). Samples were incubated at room temperature for 6 hours and vacuum-filtered using Te-Vac (Tecan, Morrisville, N.C.) to remove any precipitates. The concentration of the compound in the filtrate was measured via UV absorbance (k 250-498 nm). The unknown compound concentration was determined by comparing the fully solubilized reference plate which contained 17 μM of compound dissolved in spectroscopically pure n-propanol. All compounds were tested in duplicates. The kinetic solubility (μg/mL) of compounds was calculated using the pSOL Evolution software (Pion Inc., Billerica, Mass.). The three controls used were albendazole (low solubility), phenazolpyridine (moderate solubility) and furosemide (high solubility).

[2] = Parallel artificial membrane permeability assay (PAMPA); format: in vitro ADME; details: pH 7.4
Text: Stirring double-sink PAMPA method was employed to determine the permeability of compounds via PAMPA. The PAMPA lipid membrane consisted of an artificial membrane of a proprietary lipid mixture and dodecane (Pion Inc., Billerica, Mass.), optimized to predict gastrointestinal tract passive permeability. The lipid was immobilized on a plastic matrix of a 96-well “donor” filter plate placed above a 96-well “acceptor” plate. pH 7.4 solution was used in both donor and acceptor wells. The test articles, stocked in 10 mM DMSO solutions, were diluted to 0.05 mM in aqueous buffer (pH 7.4), and the concentration of DMSO was 0.5% in the final solution. During the 30-minute permeation period at room temperature, the test samples in the donor compartment were stirred using the Gutbox technology (Pion Inc.) to reduce the aqueous boundary layer. The test article concentrations in the donor and acceptor compartments were measured using a UV plate reader (Nano Quant, Infinite® 200 PRO, Tecan). Permeability calculations were performed using Pion Inc. software and were expressed in units of 10-6 cm/s. Compounds with low or weak UV signal were analyzed using high resolution LC/MS (Thermo QExactive, Thermo Fisher).

[3] = Rat liver microsome stability assay; format: in vitro ADME; details: pH 7.4; rat liver microsomes
Method: Single time point microsomal stability was determined in a 96-well HTS format. Sample preparation was automated using an EVO 200 robot (Tecan, Switzerland). A high-resolution LC/MS (Thermo QExactive, ThermoFisher (Waltham, Mass.)) instrument was used to measure the percentage of compound remaining after incubation using a known method. Six standard controls were tested in each run: buspirone and propranolol (for short half-life), loperamide and diclofenac (for short to medium half-life), and carbamazepine and antipyrine (for long half-life). Briefly, the incubation consisted of 0.5 mg/mL microsomal protein, 1.0 μM compound concentration, and NADPH regeneration system (containing 0.650 mM NADP+, 1.65 mM glucose 6-phosphate, 1.65 mM MgCl2, and 0.2 U/mL G6PDH) in 100 mM phosphate buffer at pH 7.4. The incubation was carried out at 37° C. for 15 min. The reaction was quenched by adding 555 μL of acetonitrile (1:2 ratio) containing 0.28 μM albendazole (internal standard).

C57BL/6N mice [4] = test: Acute scratching behavior, histamine-induced; format: in vivo, mouse; details: 163 μg i.p., 10 minutes before 100 μg histamine into nape of neck; bouts per 30 minutes
Method: (§1) All experiments using mice followed NIH guidelines and were approved by the National Institute of Dental and Craniofacial Research ACUC. Behavioral assessment of scratching behavior was conducted as follows: 6-8-week old female C57BL/6N mice (Envigo) were injected intraperitoneally with JS-11 (163 μg) or DMSO (20%) as a vehicle control. Ten minutes later, 100 μg histamine diluted in 10 μl PBS or 8.9 μg CYM5442 diluted in 10 μl ddH2O was injected subcutaneously into the nape of the neck. Scratching behavior was recorded for 30 minutes and is presented in bouts per 30 minutes. One bout was defined as scratching behavior towards the injection site between lifting the hind leg from the ground and either putting it back on the ground or guarding the paw with the mouth. To control for motor impairment by JS-11, rota-rod performance was also assessed 10 minutes after intraperitoneal injection.

C57BL/6N mice [5] = test: Acute scratching behavior, CYM5442-induced; format: in vivo, mouse; details: 163 μg i.p., 10 minutes before 8.9 μg CYM5442 into nape of neck; bouts per 30 minutes
Method: as §1

C57BL/6N mice [6] = test: Rotarod performance and gross behavior after JS-11; format: in vivo, mouse
Method: as §1

For `Cc1cc(CNC(=O)c2ccc3c(c2)n(CC2CC2)c(=O)n3C2CCCCC2)on1` [JS-11, 1-cyclohexyl-3-(cyclopropylmethyl)-N-((3-methylisoxazol-5-yl)methyl)-2-oxo-2,3-dihydro-1H-benzo[d]imidazole-5-carboxamide], the water solubility [1] was “relatively high-water solubility”, the Papp at 30 min, 0.05 mM [2] was 7.4 ×10⁻⁶ cm/s and the half-life at 1 μM [3] was 12.4 min. For the same compound, the “Scratching responses to histamine” value (C57BL/6N mice [4]) was “reduced scratching responses to histamine by more than half; also recorded: significantly attenuated”, the “Scratching responses to CYM5442” value (C57BL/6N mice [5]) was “strongly attenuated itch response; also recorded: significantly attenuated” and the Overall mouse behavior (C57BL/6N mice [6]; 163 μg intraperitoneally) was “no gross change in overall mouse behavior”. For the same compound, the “Motor coordination (rotarod performance)” value (C57BL/6N mice [6]; 10 minutes after 163 μg JS-11 intraperitoneally) was “no impairment of motor coordination; also recorded: not significantly altered”.
